What all share (type): in vivo
One series concerns Zea mays. As to the kind of experiment: Damage to crop plant ZEAMA, visual scoring vs untreated. The method, then: (§1) The examples given below were performed in the greenhouse and, in some cases, in field trials.
(§2) The herbicides, or combinations, were applied in cereals after the weeds had emerged naturally using plot sprayers. After application, the results, such as damage to the crop plants and effect on broad-leaved weeds/grass weeds were assessed by means of visual scoring. The herbicidal action was assessed qualitatively and quantitatively by comparing untreated and treated plots on the basis of the effect on plant growth and the development of chloroses and necroses down to the complete destruction of the weeds (0–100%). The application was effected when the crop plants and weeds were in the 2–4 leaf stage. The test was evaluated approximately 4 weeks after application.
(§3) In the greenhouse experiments, the crop plants and broadleaved weeds/grass weeds were grown in No. 13 pots and treated in the 2–4 leaf stage. The pots were subsequently placed in the greenhouse under good growth conditions (temperature, atmospheric humidity, water supply).
(§4) The assessments were carried out similarly to those in the field trials, i.e. visual scoring of the treated plants in comparison with untreated control variants. These assessments were carried out 3 weeks after applying the test preparations and their combinations. The experiments had been set up in two replications.

A further series concerns Echinochloa crus galli. As to the kind of experiment: Herbicidal action on ECHCR, visual scoring vs untreated, post-emergence 2-4 leaf stage. How it is done: as §1, §2, §3, §4
To assess the combination effects, the activities of the individual components were added and compared with the activity of the mixtures in equal doses. It was frequently observed that the efficacies of the combinations exceeded the total of the individual activities.
In cases with less clear effects, the expected value was calculated using Colby's formula and compared with the empirically determined result. The calculated efficacy of a combination which is expected in theory is determined is using S.R. Colby's formula: “Calculation of synergistic and antagonistic responses of herbicide combinations”, Weeds 15 (1967), pages 20 to 22.
[formula] where • X=% damage caused by herbicide A at a rate of ×kg a.i./ha; • Y=% damage caused by herbicide B at a rate of y kg a.i./ha; • Z=% damage caused by a further herbicide C at a rate of z kg a.i./ha; • E=expected value, i.e. expected damage caused by herbicides A+B (or A+B+C) at x+y (or x+y+z) kg a.i./ha.
Synergistic effects were assumed to be when the empirical value exceeded the expected value. In the case of combinations with individual components with the same active substances, comparisons via the total formula were also possible.

The test system of a further series is Ambrosia elatior. As to the kind of experiment: Herbicidal action on AMBEL, visual scoring vs untreated, post-emergence 2-4 leaf stage. The conditions noted are these: Table 12; 2.5 g of ai/ha. The method, then: as §1, §2
In the greenhouse experiments, the crop plants and broadleaved weeds/grass weeds were grown in No. 13 pots and treated in the 2–4 leaf stage. […]
In cases with less clear effects, the expected value was calculated using Colby's formula and compared with the empirically determined result. The calculated efficacy of a combination which is expected in theory is determined is using S.R. Colby's formula: “Calculation of synergistic and antagonistic responses of herbicide combinations”, Weeds 15 (1967), pages 20 to 22. […]

Drawing on patent US7074743B1, “Herbicidal composition comprising 4-iodo-2-[3-(4-methoxy-6-methyl-1,3,5-triazin-2-yl)ureidosulfonyl]benzoic esters” (priority 1995, dated 2006), this text covers ZEAMA % damage, ECHCR % control and AMBEL % control for one compound.

In the case of `COC(=O)c1ccc(I)cc1S(=O)(=O)NC(=O)Nc1nc(C)nc(OC)n1.[Na]` [A), sodium salt of methyl 4-iodo-2-[3-(4-methoxy-6-methyl-1,3,5-triazin-2-yl)ureidosulfonyl]benzoate], the ZEAMA % damage with Zea mays (Table 4, 10 g of a.i./ha) is listed as 0%; in the series on Zea mays (Table 4, 20 g of a.i./ha), 0%; in the series with Zea mays (Table 4, 40 g of a.i./ha), 0%; with Zea mays (Table 4, 80 g of a.i./ha) it was 0%; with Zea mays (Table 8, 10 g of a.i./ha), 0%; in the series with Zea mays (Table 8, 20 g of a.i./ha), 0%. For the same compound, the ZEAMA % damage in the series with Zea mays (Table 8, 40 g of a.i./ha) is recorded as 0%; in the series with Zea mays (Table 8, 80 g of a.i./ha), 0%; with Zea mays (Table 12, 2.5 g of ai/ha), 3%. Moreover, the ECHCR % control is 65% with Echinochloa crus galli (Table 4, 10 g of a.i./ha); 75% in the series with Echinochloa crus galli (Table 4, 20 g of a.i./ha); 80% in the series with Echinochloa crus galli (Table 4, 40 g of a.i./ha); 88% in the series with Echinochloa crus galli (Table 4, 80 g of a.i./ha); 65% in the series on Echinochloa crus galli (Table 8, 10 g of a.i./ha); 73% with Echinochloa crus galli (Table 8, 20 g of a.i./ha). Further, the ECHCR % control amounted to 80% with Echinochloa crus galli (Table 8, 40 g of a.i./ha) and 88% with Echinochloa crus galli (Table 8, 80 g of a.i./ha). In the series on Ambrosia elatior, the AMBEL % control was determined as 88%.
